Data as given in US20240246920A1, “TRIAZOLE DERIVATIVES WITH ANTIFUNGAL ACTIVITY” (King's College London, priority 2020, published 2024).
≈ marks a conversion by molar mass, not a printed value.

How the values were obtained:
C. albicans NCPF3281 = experiment: Candida panel MIC, serial dilution in 96-well plates; type: cell-based, Candida albicans; details: Candida albicans, NCPF3281; Table 4, common panel; 24 hours, ≥50% inhibition; read-out: MIC C. albicans NCPF3281
Protocol: (§1) The minimum inhibitory concentration of test compounds were determined in a panel of Candida species (see Table 4 below), using the a serial dilution method in 96-well plates using the following protocol.
(§2) Starter cultures of fungal strains to be tested were grown in 3 mL of RPMI 2% glucose media incubated at 37° C. with shaking at 200 rpm overnight. The culture media used was 900 mL H2O; 10.4 g RPMI 1640 (with L-glutamine and a pH indicator but without bicarbonate); 34.5 g MOPS and 18 g glucose. The pH of the media was adjusted to 7.0 with 1 M sodium hydroxide.
(§3) Solutions of the compound to be tested were prepared by dissolving the compound in DMSO and subsequently into media to the desired concentrations. 200 μL of compound solution was then added to the wells of the 96-well plate using a serial dilution method row-by row of the plate to give a compound concentration gradient across the plate of from 128 μg/mL to 0.25 μg/mL. The last two rows of each plate were control rows containing the culture media alone and the media plus fungi.
(§4) The fungi starter cultures were diluted 1:10 in water in cuvettes. This was then further diluted to an optical density (OD600) of 0.01 in media. 100 μL of the fungi was added to each well giving a starting concentration of fungus of 0.5-5×10^5/mL. One species of fungus was used on each plate. The plates were then held at 37° C. for 24 hours.
(§5) A plate reader was used to measure growth in each well at OD530 nm and the MIC was determined for each test compound. The MIC is defined as the lowest concentration giving rise to inhibition of ≥50% of that of the drug-free control well containing the fungus and media.

C. glabrata NCPF8018 = experiment: as above; type: cell-based, Candida glabrata; details: Nakaseomyces glabratus, NCPF8018; Table 4, common panel; 24 hours, ≥50% inhibition; read-out: MIC C. glabrata NCPF8018
Protocol: as §1, §2
(§6) Solutions of the compound to be tested were prepared by dissolving the compound in DMSO and subsequently into media to the desired concentrations. […] The last two rows of each plate were control rows containing the culture media alone and the media plus fungi.
as §4, §5

C. krusei NCPF3876 = experiment: microbe, parasite or virus in culture; type: cell-based, Candida krusei; details: Pichia kudriavzevii, NCPF3876; Table 4, common panel; 24 hours, ≥50% inhibition; read-out: MIC C. krusei NCPF3876
Protocol: as §1, §2, §6, §4, §5

C. parapsilosis NCPF3209 = experiment: microbe, parasite or virus in culture; type: cell-based, Candida parapsilosis; details: Lodderomyces parapsilosis, NCPF3209; Table 4, common panel; 24 hours, ≥50% inhibition; read-out: MIC C. parapsilosis NCPF3209
Protocol: as §1, §2, §6, §4, §5

Candida auris TDG2211 = experiment: microbe, parasite or virus in culture; type: cell-based; details: Candidozyma auris, TDG2211; Table 4, extended panel; 24 hours, ≥50% inhibition; read-out: MIC Candida auris TDG2211
Protocol: as §1, §2, §6, §4, §5
(§7) The Candida auris strains shown in Table 7 were either taken from the National Collection of Pathogenic Fungi (NCPF) or collected as part of ongoing surveillance studies. The strains were characterised as follows.

Candida auris TDG2506 = experiment: microbe, parasite or virus in culture; type: cell-based; details: Candidozyma auris, TDG2506; Table 4, extended panel; 24 hours, ≥50% inhibition; read-out: MIC Candida auris TDG2506
Protocol: as §1, §2, §6, §4, §5, §7

C. auris TDG1912 = experiment: Candida panel MIC, serial dilution in 96-well plates; type: cell-based; details: Candidozyma auris, TDG1912; Table 4; 24 hours, ≥50% inhibition; read-out: MIC C. auris TDG1912
Protocol: as §1, §2, §3, §4, §5

C. tropicalis NCPF8760 = experiment: as above; type: cell-based; details: NCPF8760, Table 4, common panel, 24 hours, ≥50% inhibition, read-out: MIC C. tropicalis NCPF8760
Protocol: as §1, §2, §3, §4, §5

Candida auris TDG1102 = experiment: as above; type: cell-based; details: Candidozyma auris, TDG1102; Table 4, extended panel; 24 hours, ≥50% inhibition; read-out: MIC Candida auris TDG1102
Protocol: as §1, §2, §3, §4, §5

Candida auris TDG2512 = experiment: as above; type: cell-based; details: Candidozyma auris, TDG2512; Table 4, extended panel; 24 hours, ≥50% inhibition; read-out: MIC Candida auris TDG2512
Protocol: as §1, §2, §3, §4, §5

C. auris 8971 = experiment: as above; type: cell-based, Candida auris; details: Candidozyma auris, 8971; Table 4, extended panel; 24 hours, ≥50% inhibition; read-out: MIC C. auris 8971
Protocol: as §1, §2, §6, §4, §5, §7

C. auris 8977 = experiment: as above; type: cell-based, Candida auris; details: Candidozyma auris, 8977; Table 4, extended panel; 24 hours, ≥50% inhibition; read-out: MIC C. auris 8977
Protocol: as §1, §2, §6, §4, §5, §7

C. auris 8984 = experiment: as above; type: cell-based, Candida auris; details: Candidozyma auris, 8984; Table 4, extended panel; 24 hours, ≥50% inhibition; read-out: MIC C. auris 8984
Protocol: as §1, §2, §6, §4, §5, §7

SMILES | MIC (C. albicans NCPF3281) | MIC (C. glabrata NCPF8018) | MIC (C. krusei NCPF3876) | MIC (C. parapsilosis NCPF3209) | MIC (Candida auris TDG2211) | MIC (Candida auris TDG2506) | MIC (C. auris TDG1912) | MIC (C. tropicalis NCPF8760) | MIC (Candida auris TDG1102) | MIC (Candida auris TDG2512) | MIC (C. auris 8971) | MIC (C. auris 8977) | MIC (C. auris 8984)
OC(CN1CCC(N2CCC(Nc3ncc(F)cn3)CC2)CC1)(Cn1cncn1)c1ccc(F)cc1F (stereo not drawn) [Example 10, 2-(2,4-Difluorophenyl)-1-(4-((5-fluoropyrimidin-2-yl)amino)-[1,4′-bipiperidin]-1′-yl)-3-(1H-1,2,4-triazol-1-yl)propan-2-ol] | 0.015 µg/mL (≈ 0.029 µM) | 64 µg/mL (≈ 124 µM) | 32 µg/mL (≈ 61.9 µM) | 0.125 µg/mL (≈ 0.242 µM) | 64 µg/mL (≈ 124 µM) | 8 µg/mL (≈ 15.5 µM) | 4 µg/mL (≈ 7.74 µM) | 64 µg/mL (≈ 124 µM) | 4 µg/mL (≈ 7.74 µM) | 0.5 µg/mL (≈ 0.968 µM) | 0.5 µg/mL (≈ 0.968 µM) | 1 µg/mL (≈ 1.94 µM) | 0.5 µg/mL (≈ 0.968 µM)
OC(CN1CCC(N2CCC(Nc3ccccc3)CC2)CC1)(Cn1cncn1)c1ccc(F)cc1F (stereo not drawn) [Example 14, 2-(2,4-difluorophenyl)-1-(4-(phenylamino)-[1,4′-bipiperidin]-1′-yl)-3-(1H-1,2,4-triazol-1-yl)propan-2-ol] | ≤ 0.125 µg/mL | 16 µg/mL (≈ 32.2 µM) | 4 µg/mL (≈ 8.05 µM) | ≤ 0.125 µg/mL | ≤ 0.125 µg/mL | 2 µg/mL (≈ 4.03 µM) | 1 µg/mL (≈ 2.01 µM) | 32 µg/mL (≈ 64.4 µM) | 1 µg/mL (≈ 2.01 µM) | 0.25 µg/mL (≈ 0.503 µM) | 0.25 µg/mL (≈ 0.503 µM) | 0.25 µg/mL (≈ 0.503 µM) | 1 µg/mL (≈ 2.01 µM)
OC(CN1CC2CN(c3ncc(F)cn3)CC2C1)(Cn1cncn1)c1ccc(F)cc1F (stereo not drawn) [Example 15, 2-(2,4-difluorophenyl)-1-(5-(5-fluoropyrimidin-2-yl)hexahydropyrrolo[3,4-c]pyrrol-2(1H)-yl)-3-(1H-1,2,4-triazol-1-yl)propan-2-ol] | 0.12 µg/mL (≈ 0.269 µM) | 1 µg/mL (≈ 2.24 µM) | 4 µg/mL (≈ 8.98 µM) | 0.125 µg/mL (≈ 0.281 µM) | 4 µg/mL (≈ 8.98 µM) | > 128 µg/mL | 8 µg/mL (≈ 18 µM) | 8 µg/mL (≈ 18 µM) | 8 µg/mL (≈ 18 µM) | 4 µg/mL (≈ 8.98 µM) | 0.5 µg/mL (≈ 1.12 µM) | 1 µg/mL (≈ 2.24 µM) | 32 µg/mL (≈ 71.8 µM)
OC(CN1C[C@H]2CC(Nc3ccc(Cc4ccccc4)cc3)C[C@H]2C1)(Cn1cncn1)c1ccc(F)cc1F (stereo partly drawn) [Example 16, 1-((3aR,6aS)-5-((4-benzylphenyl)amino)hexahydrocyclopenta[c]pyrrol-2(1H)-yl)-2-(2,4-difluorophenyl)-3-(1H-1,2,4-triazol-1-yl)propan-2-ol] | ≤ 0.125 µg/mL | ≤ 0.125 µg/mL | ≤ 0.125 µg/mL | ≤ 0.125 µg/mL | ≤ 0.125 µg/mL | 0.5 µg/mL (≈ 0.944 µM) | 1 µg/mL (≈ 1.89 µM) | 1 µg/mL (≈ 1.89 µM) | 1 µg/mL (≈ 1.89 µM) | ≤ 0.125 µg/mL | ≤ 0.125 µg/mL | ≤ 0.125 µg/mL | 1 µg/mL (≈ 1.89 µM)
OC(CN1CCC(Nc2ccc(Cc3ccc(F)cc3)cc2)CC1)(Cn1cncn1)c1ccc(F)cc1F (stereo not drawn) [Example 30, 2-(2,4-difluorophenyl)-1-(4-((4-(4-fluorobenzyl)phenyl)amino)piperidin-1-yl)-3-(1H-1,2,4-triazol-1-yl)propan-2-ol] | ≤ 0.125 µg/mL | ≤ 0.125 µg/mL | ≤ 0.125 µg/mL | ≤ 0.125 µg/mL | ≤ 0.125 µg/mL | ≤ 0.125 µg/mL | ≤ 0.125 µg/mL | ≤ 0.125 µg/mL | ≤ 0.125 µg/mL | ≤ 0.125 µg/mL | ≤ 0.125 µg/mL | ≤ 0.125 µg/mL | ≤ 0.125 µg/mL
OC(CN1CCC(Nc2ccc(OCc3ccncc3)cc2)CC1)(Cn1cncn1)c1ccc(F)cc1F (stereo not drawn) [Example 81] | 0.00781 µg/mL (≈ 0.015 µM) | 2 µg/mL (≈ 3.84 µM) | 0.125 µg/mL (≈ 0.24 µM) | 0.00781 µg/mL (≈ 0.015 µM) | 0.0313 µg/mL (≈ 0.0601 µM) | 0.125 µg/mL (≈ 0.24 µM) | 0.0313 µg/mL (≈ 0.0601 µM) | 0.5 µg/mL (≈ 0.96 µM) | 0.0625 µg/mL (≈ 0.12 µM) | 0.00781 µg/mL (≈ 0.015 µM) | 0.0156 µg/mL (≈ 0.03 µM) | 0.0156 µg/mL (≈ 0.03 µM) | 0.125 µg/mL (≈ 0.24 µM)
